# Patent publication US20240285784A1, “PEPTIDIC CONJUGATES OF SN38 USEFUL IN THE TREATMENT OF CANCER” (FUNDACIÓ INSTITUT DE RECERCA BIOMÈDICA (IRB BARCELONA), priority 2020, published 2024)
# Like-named read-outs stand apart in the source and are kept apart here. *1 amine or outer side, *2 acyl side, *3 side chain or, on linkers, in order; H or OH if unused. Where a SMILES comes first, the peptide text is derived from it. Bridges are numbered along the chain shown (N, C = ends). [ ]: non-standard residue; d: D form. The star is where a group is joined. X1 = CCc1c2c(nc3ccc(O)cc13)-c1cc3c(c(=O)n1C2)COC(=O)[C@@]3(CC)OC(=O)CCCCn1cc(CCCC(=O)NCCCOCCOCCOCCCN*)nn1; Suc = O=C(CCC(=O)[*:2])[*:1]; Dap = NC[C@H](N)C(=O)O
# Legend:
# [1] = tested on: neuroblastoma patient-derived cell model HSJD-NB-005; experiment: MTS cell viability assay, neuroblastoma model HSJD-NB-005; assay type: cell-based; details: 72 h incubation, Example 9, Table 3, read-out: IC50 values against cancer cell lines
# Description: (§1) Cancer cell lines were obtained from the repository maintained at Hospital Sant Joan de Deu (Barcelona, Spain). Cancer cell lines used in these experiment included cancer types of adult glioma (U373 and U87 cell lines), pediatric gliomas including diffuse intrinsic pontine glioma (HSJD-DIPG-007, HSJD-DIPG-011), and pediatric high-grade glioma (HSJD-GBM-001), retinoblastoma (HSJD-RBT-5, HSJD-RBT-7 and HSJD-RBT-14), Ewing sarcoma (A673), rhabdomyosarcoma (Rd and RH4) and neuroblastoma (LAN-1 and SK-N-JD cell lines and HSJD-NB-004, HSJD-NB-005 and HSJD-NB-016 patient-derived cell models). […] To add the drugs to the cells in culture, SN38-linker A-MiniAp4 (Ia) and irinotecan were prepared in culture medium from stock solutions at concentration 1 mg/mL in water. SN38 was prepared in culture medium from a stock solution at concentration 1 mg/mL in DMSO. […] Activity curves were built for adult glioma cell lines U87 (FIG. 1) and U373 (FIG. 2), pediatric gliomas including DIPG models HSJD-DIPG-007 (FIG. 3) and HSJD-DIPG-011 (FIG. 4), and pediatric high-grade glioma model HSJD-GBM-001 (FIG. 5), retinoblastoma models HSJD-RBT-5 (FIG. 6), HSJD-RBT-7 (FIG. 7) and HSJD-RBT-14 (FIG. 8), Ewing sarcoma cell line A673 (FIG. 9), rhabdomyosarcoma cell lines Rd (FIG. 10) and RH4 (FIG. 11), neuroblastoma cell lines LAN-1 (FIG. 12) and SK-N-JD (FIG. 13) and neuroblastoma patient-derived cell models HSJD-NB-004 (FIG. 14), HSJD-NB-005 (FIG. 15) and HSJD-NB-016 (FIG. 16). The established IC50 values are in Table 3.
# [2] = tested on: diffuse intrinsic pontine glioma HSJD-DIPG-007; experiment: cells
# Description: as §1
# Cancer cell lines used in these experiments were pediatric gliomas including diffuse intrinsic pontine glioma HSJD-DIPG-007, and pediatric high-grade glioma HSJD-GBM-001. […] To add the drugs to the cells in culture, SN38-Linker A-MiniAp4 (Ia) and SN38-Linker B-THRre were prepared in culture medium from stock solutions at concentration 1 mg/mL in water. SN38 was prepared in culture medium from a stock solution at concentration 1 mg/mL in DMSO. […] Activity curves were built for cells HSJD-DIPG-007 (FIG. 20) and HSJD-GBM-001 (FIG. 21).
# Cancer cell lines used in these experiments were pediatric gliomas including diffuse intrinsic pontine glioma HSJD-DIPG-007, and pediatric high-grade glioma HSJD-GBM-001. […] All compounds were prepared in culture medium from stock solutions at concentration 1 mg/mL in water. […] Activity curves were built for cells HSJD-DIPG-007 (FIG. 22) and HSJD-GBM-001 (FIG. 23).
# Cancer cell line used in these experiment was HSJD-DIPG-007.
# [3] = tested on: rhabdomyosarcoma cell line RH4; experiment: MTS cell viability assay, rhabdomyosarcoma cell line RH4; assay type: cell-based; details: 72 h incubation, Example 9, Table 3, read-out: IC50 values against cancer cell lines
# Description: as §1
# [4] = tested on: diffuse intrinsic pontine glioma HSJD-DIPG-011; experiment: MTS cell viability assay, DIPG model HSJD-DIPG-011; assay type: cell-based; details: 72 h incubation, Example 9, Table 3, read-out: IC50 values against cancer cell lines
# Description: as §1
# [5] = tested on: Ewing sarcoma cell line A673; experiment: MTS cell viability assay, Ewing sarcoma cell line A673; assay type: cell-based; details: 72 h incubation, Example 9, Table 3, read-out: IC50 values against cancer cell lines
# Description: as §1
# [6] = tested on: rhabdomyosarcoma cell line Rd; experiment: MTS cell viability assay, rhabdomyosarcoma cell line Rd; assay type: cell-based; details: 72 h incubation, Example 9, Table 3, read-out: IC50 values against cancer cell lines
# Description: as §1
# [7] = tested on: retinoblastoma cell model HSJD-RBT-5; experiment: MTS cell viability assay, retinoblastoma model HSJD-RBT-5; assay type: cell-based; details: 72 h incubation, Example 9, Table 3, read-out: IC50 values against cancer cell lines
# Description: as §1
# [8] = tested on: adult glioma cell line U87; experiment: MTS cell viability assay, adult glioma cell line U87; assay type: cell-based; details: 72 h incubation, Example 9, Table 3, read-out: IC50 values against cancer cell lines
# Description: as §1
# [9] = tested on: neuroblastoma cell line LAN-1; experiment: MTS cell viability assay, neuroblastoma cell line LAN-1; assay type: cell-based; details: Example 9, Table 3, read-out: IC50 values against cancer cell lines
# Description: as §1
# [10] = tested on: neuroblastoma cell line SK-N-JD; experiment: MTS cell viability assay, neuroblastoma cell line SK-N-JD; assay type: cell-based; details: 72 h incubation, Example 9, Table 3, read-out: IC50 values against cancer cell lines
# Description: as §1
# [11] = tested on: neuroblastoma patient-derived cell model HSJD-NB-016; experiment: MTS cell viability assay, neuroblastoma model HSJD-NB-016; assay type: cell-based; details: 72 h incubation, Example 9, Table 3, read-out: IC50 values against cancer cell lines
# Description: as §1
# [12] = tested on: retinoblastoma cell model HSJD-RBT-14; experiment: MTS cell viability assay, retinoblastoma model HSJD-RBT-14; assay type: cell-based; details: 72 h incubation, Example 9, Table 3, read-out: IC50 values against cancer cell lines
# Description: as §1
# [13] = tested on: athymic nude mice; experiment: In vivo tolerability, repeated intravenous injections (mouse weight); details: 30 mg/kg i.v., 9 doses (days 1, 3, 5, 8, 10, 12, 29, 31, 33), weight until day 40
# Description: Upon the establishment of the MTD of SN38-linker A-MiniAp4 (Ia) at single i.v, we compared mean weight of mice treated with irinotecan at a clinically relevant multi-dose regimen, and SN38-linker A-MiniAp4 (Ia)at an equimolar dose. Briefly, mice were treated with either irinotecan 10 mg/kg (15 doses, on days 1-5, 8-12 and 29-33), by the intraperitoneal (i.p.) route, or with a SN38-linker A-MiniAp4 (Ia) 30 mg/kg (9 doses, on days 1, 3, 5, 8, 10, 12, 29, 31, 33), intravenously (i.v.). This regimen was considered the maximum feasible number of i.v. injections in mice. Control mice were treated with saline i.p. on days 1-5, 8-12 and 29-33.
# Mouse weight was measured until day 40 and mean and SD values are represented for each group in FIG. 19. […] Weight of SN38-linker A-MiniAp4 (Ia) (Ia) treated mice was similar to that of mice treated with clinically relevant dosages of irinotecan.
# [14] = Stability in dog plasma at 37° C. in vitro; assay type: in vitro ADME
# Description: To assess the stability of the SN38-linker A-MiniAp4 (Ia) (example 7) in human, mouse, dog and rat plasma at 37° C., the compound was prepared at 200 μM in plasma samples in triplicates at each timepoint (0 h, 1 h, 4 h, 8 h and 24 h) for each species. Once the incubation was finalised, plasma proteins were immediately precipitated by adding chilly methanol (ratio 4:1, methanol:plasma) and tubes were shacked for few seconds (vortex). Samples were centrifuged at 3,000 rpm for 30 minutes at 4° C., supernatants were collected, transferred to the injection plate and injected to LC-MS system.
# Compound recovery was determined by comparing the analyte response in a biological sample that is spiked with the analyte and processed, with the response in a methanol sample that is spiked with the analyte and processed.
# Plasma stability assay was performed using blank plasma from untreated volunteers/animals. K2-EDTA was used as anticoagulant. Human blank plasma used was obtained from Hospital Sant Pau, mouse blank plasma used was obtained from Janvier, dog blank plasma used was obtained from Isoquimen and rat blank plasma used were obtained from Draconis Pharma.
# [15] = HSJD-DIPG-007, 72 h, read-out: IC50 values against cancer cell lines
IC50 [1],"IC50 [2, 15]",IC50 ([3]; Rhabdomyosarcoma cell),IC50 [4],IC50 ([5]; Homo sapiens),IC50 ([6]; Rhabdomyosarcoma cell),IC50 [7],IC50 ([8]; Glioma cell),"IC50 ([9]; LAN1, 72 h incubation)",IC50 ([10]; Neuroblastoma cell),IC50 [11],IC50 [12],Structure (SMILES),other results
8200 nM,4.75 µM,10800 nM,1200 nM,1440 nM,5960 nM,911 nM,9750 nM,7000 nM,7760 nM,659 nM,2600 nM,CCc1c2c(nc3ccc(OC(=O)N4CCC(N5CCCCC5)CC4)cc13)-c1cc3c(c(=O)n1C2)COC(=O)[C@]3(O)CC [Irinotecan],
12.5 nM,0.00113 µM,14.8 nM,1.12 nM,0.462 nM,1.57 nM,10.3 nM,4.04 nM,1.96 nM,7.55 nM,12.3 nM,1.08 nM,"CCc1c2c(nc3ccc(O)cc13)-c1cc3c(c(=O)n1C2)COC(=O)[C@]3(O)CC [SN38, 7-ethyl-10-hydroxy-camptothecin]","IC50 ([2]; HSJD-DIPG-007, 72 h, read-out: IC50 values (μM)): 0.000739 µM; IC50 ([2]; HSJD-DIPG-007, 72 h, read-out: IC50 values of compounds): 0.00151 µM"

Structure (SMILES),IC50 [1],"IC50 [2, 15]",IC50 ([3]; Rhabdomyosarcoma cell),IC50 [4],IC50 ([5]; Homo sapiens),IC50 ([6]; Rhabdomyosarcoma cell),IC50 [7],IC50 ([8]; Glioma cell),"IC50 ([9]; LAN1, 72 h incubation)",IC50 ([10]; Neuroblastoma cell),IC50 [11],IC50 [12],other results
CCc1c2c(nc3ccc(O)cc13)-c1cc3c(c(=O)n1C2)COC(=O)[C@@]3(CC)OC(=O)CCCCn1cc(CCCC(=O)NCCCOCCOCCOCCCNC(=O)CCC(=O)N[C@H]2CNC(=O)C[C@@H](C(N)=O)NC(=O)[C@H](CC(C)C)NC(=O)[C@H](C)NC(=O)[C@H]([C@@H](C)O)NC(=O)[C@H](CCC(=O)O)NC(=O)[C@@H]3CCCN3C(=O)[C@H](C)NC(=O)[C@H](CCCCN)NC2=O)nn1 [SN38-linker A-MiniAp4 (Ia)] ({X1-Suc}-[Dap]KAPETALD-NH2; lactam 1-9),51.5 nM,,,72.9 nM,,,92.1 nM,,,,25.6 nM,33.5 nM,"mouse weight versus controls [13]: did not lose significant weight; IC50 ([2]; read-out: IC50 values (μM) against cancer cell lines, HSJD-DIPG-007, MTS, 72 h incubation, Example 12, Table 5): 0.0203 µM; IC50 ([2]; read-out: IC50 values against cancer cell lines, HSJD-DIPG-007, MTS, 72 h incubation, Example 9, Table 3): 0.0342 µM; IC50 ([2]; read-out: IC50 values of compounds, HSJD-DIPG-007, MTS, 72 h incubation, Example 11, Table 4): 0.0107 µM; IC50 ([2]; read-out: IC50 values, HSJD-DIPG-007, MTS, 72 h incubation, Example 25, Table 8): 0.0278 µM; IC50 [3]: 81.5 nM; IC50 [5]: 3.8 nM; IC50 [6]: 6.94 nM; IC50 [8]: 744 nM; IC50 ([9]; 72 h incubation): 21.6 nM; IC50 [10]: 13.9 nM; half-life at 200 μM [14]: 8 to 24 h; recovery at 24 h, 200 μM ([14]; 24 h, read-out: % Recovery after 24 h in dog plasma): 68.3%"
